One data set deals with Pink1-/- mice. Nature of the data set: Depolarization (KCl)-evoked striatal DA overflow by in vivo microdialysis in Pink1-/- and Pink1+/+ mice. Particulars: mdivi-1 i.p. twice daily for 3 days.
Data set [1] has as its system MPTP mouse model of PD. Nature of the data set: MPTP mouse model, neuroprotection (active neurodegeneration). The data set is classed as in vivo, C57BL/6 mice. Particulars: mdivi-1 delivered together with MPTP. The method, then: For all studies, 10-12 week old male C57BL/6 mice were randomly assigned to receive intraperitoneal injections of either MPTP (25 mg/kg, Sigma, St. Louis, Mo.) or saline once daily for 5 days. For the neuroprotection studies, mice received twice daily i.p. injections (20 mg/kg) with mdivi-1 beginning on the day of the first MPTP injection and continued until mice were sacrificed 7 days after last MPTP injection. For the neurorescue studies, mice received twice daily i.p. injections (20 mg/kg) with mdivi-1 beginning 7 days after the last MPTP injection and continued for a total of 3 days. […]
(§1) Brains from saline and MPTP treated mice were sectioned (30 μm) and processed for stereological cell counts using the optical fractionator method as described 35. Striatal optical densities of TH immunoreactivity were also quantified.
(§2) A 12-channel CoulArray® (ESA Inc., Chelmsford, Mass.) equipped with a highly sensitive amperometric microbore cell (model 5041, ESA Inc.) was used to analyze the content of DA and its metabolites with the cell potential set at +220 mV as described in Cui et al. For measurements of total striatal DA content, mice were sacrificed and their striata were dissected out and stored at −80° C. until analysis. […] Peaks were detected by an ESA 8 Channel CoulArray® system. […]

Data set [2] relates to MPTP mouse model of PD. The experiment in a line: MPTP mouse model, neurorescue (treatment 7 days after last MPTP injection). It is filed as in vivo, C57BL/6 mice. Particulars: mdivi-1 i.p. twice daily for 3 days starting 7 days after last MPTP injection. How it is done: For all studies, 10-12 week old male C57BL/6 mice were randomly assigned to receive intraperitoneal injections of either MPTP (25 mg/kg, Sigma, St. Louis, Mo.) or saline once daily for 5 days. For the neuroprotection studies, mice received twice daily i.p. injections (20 mg/kg) with mdivi-1 beginning on the day of the first MPTP injection and continued until mice were sacrificed 7 days after last MPTP injection. For the neurorescue studies, mice received twice daily i.p. injections (20 mg/kg) with mdivi-1 beginning 7 days after the last MPTP injection and continued for a total of 3 days. To maximize the data yielded from each animal, mice were sacrificed by decapitation and the freshly removed brains were divided into 3 pieces for separate measures of nigrostriatal damage. […]
as §1
Stereotactic implantation of guide cannula was performed under ketamine/xylazine (65/6 mg/kg i.p.) anesthesia using the following striatal coordinates, relative to bregma: anterior-posterior +0.5 mm, lateral −2.0 mm, dorsal-ventral −1.5 mm (from surface of brain). […] Samples from the same animals were measured for the contents of mdivi-1, MPP+, DA, and its metabolites. […]

Data set [3] can be described thus: In vivo microdialysis and HPLC of mdivi-1 in striatal dialysate (blood-brain barrier crossing). On the set-up: species or system mice. The method, then: Stereotactic implantation of guide cannula was performed under ketamine/xylazine (65/6 mg/kg i.p.) anesthesia using the following striatal coordinates, relative to bregma: anterior-posterior +0.5 mm, lateral −2.0 mm, dorsal-ventral −1.5 mm (from surface of brain). […] Samples from the same animals were measured for the contents of mdivi-1, MPP+, DA, and its metabolites. Levels of these molecules and the amount of KCl (delivered to the striatum) were calculated on the basis of the standard curves, probe efficiency (˜8%), flow rate, and duration of sample collection as described in Cui et al. “The organic cation transporter-3 is a pivotal modulator of neurodegeneration in the nigrostriatal dopaminergic pathway,” PNAS USA 106: 8043-8048 (2009).
as §2
The ability of Mitochondrial Division Inhibitor-1 (mdivi-1), a Drp1 inhibitor, to cross the blood-brain barrier was assessed. […]

For data set [4], the target named is T1, mouse dopamine transporter (Mus musculus, UniProt Q61327).
T1 construct: expressed in transfected cells; host or cells: EM4 cells / HEK 293 cells stably transfected with macrophage scavenger receptor
T1 sequence (Q61327 whole entry): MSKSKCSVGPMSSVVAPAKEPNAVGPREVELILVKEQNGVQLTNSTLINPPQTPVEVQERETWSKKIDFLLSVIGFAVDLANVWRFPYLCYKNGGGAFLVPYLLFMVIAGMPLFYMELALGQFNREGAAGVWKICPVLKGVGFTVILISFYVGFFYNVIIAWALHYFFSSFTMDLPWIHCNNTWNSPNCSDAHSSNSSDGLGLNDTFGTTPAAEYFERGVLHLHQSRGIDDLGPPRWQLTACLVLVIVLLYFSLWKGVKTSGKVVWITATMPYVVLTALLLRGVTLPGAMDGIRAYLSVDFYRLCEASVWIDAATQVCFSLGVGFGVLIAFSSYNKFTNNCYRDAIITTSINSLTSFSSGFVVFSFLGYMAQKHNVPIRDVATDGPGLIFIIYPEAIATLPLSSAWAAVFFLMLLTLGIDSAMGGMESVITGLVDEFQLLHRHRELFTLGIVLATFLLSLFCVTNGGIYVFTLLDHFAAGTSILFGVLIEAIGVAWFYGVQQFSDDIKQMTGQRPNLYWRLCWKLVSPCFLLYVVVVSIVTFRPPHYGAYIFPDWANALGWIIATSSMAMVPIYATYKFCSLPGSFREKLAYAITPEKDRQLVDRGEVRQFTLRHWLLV
Nature of the data set: Transport studies in cells overexpressing dopamine transporter (MPP+ or DA uptake). The data set is classed as cell-based. Conditions: stable cells overexpressing DAT; substrates MPP+ or DA; mdivi-1 1 or 10 μM. How it is done: EM4 cells and human embryonic kidney (HEK 293) cells stably transfected with macrophage scavenger to increase their adherence to tissue culture plastic, overexpressing mouse dopamine transporter or empty vector control were grown in 24-well plates. These cells were washed twice and then preincubated for 20 min at 37° C. in Krebs Ringer Hepes (KRH) buffer (125 mM NaCl, 25 mM HEPES, 5.6 mM glucose, 4.8 mM KCl, 1.2 mM KH2PO4, 1.2 mM CaCl2, 1.2 mM MgSO4, pH 7.4), in the presence or absence of mdivi-1 (1, or 10 μM) or GBR12909 (1 μM). This buffer was then replaced with KRH plus or minus MPP+ (200 μM) or dopamine (100 μM), in the presence or absence of mdivi-1 (1, or 10 μM) or GBR12909 (1 μM) for 30 min. To stop the reaction, cells were rinsed with ice-cold buffer and then immediately removed in 5% trichloroacetic acid, sonicated and centrifuged at 15,000 at 4° C. […]. Supernatant was collected for MPP+ and DA quantification using HPLC. Cell pellet was measured for protein concentration using the BCA assay.

Experimental for Pink1-/- mice: Stereotactic implantation of guide cannula was performed under ketamine/xylazine (65/6 mg/kg i.p.) anesthesia using the following striatal coordinates, relative to bregma: anterior-posterior +0.5 mm, lateral −2.0 mm, dorsal-ventral −1.5 mm (from surface of brain). Twenty-four hours after recovery from surgery, a microdialysis probe (2-mm membrane, Bioanalytical Systems, Inc., West Lafayette, Ind.) was inserted into the guide cannula and connected to a low torque-dual channel swivel (Instech Laboratories, Inc., Plymouth Meeting, Pa.) which was connected to a syringe pump perfusing with artificial cerebrospinal fluid (aCSF) at 2 μL/min for all studies except mdivi-1 pharmacokinetic studies where the flow rate was 1 μL/min. […] Samples from the same animals were measured for the contents of mdivi-1, MPP+, DA, and its metabolites.

On to `COc1cc(-n2c(S)nc3ccccc3c2=O)c(Cl)cc1Cl` [mdivi-1, 3-(2,4-dichloro-5-methoxyphenyl)-2-sulfanyl-4(3H)-quinazolinone], for which the “evoked DA overflow in Pink1-/- mice” value in the data set on Pink1-/- mice (12 month old Pink1-/- mice, high-KCl aCSF) is “complete restoration”. In addition, the “level of evoked DA release in Pink1+/+ mice” value with Pink1-/- mice (Pink1+/+ mice) is “did not alter”. Moreover, in the data set on MPTP mouse model of PD [1], the “MPTP induced-loss of dopaminergic cell body terminals and DA content” value was “significantly prevented”. Moreover, in the data set with MPTP mouse model of PD [2], the “evoked DA overflow in MPTP-lesioned mice” value is “improved” and the “regeneration of nigral DA neurons terminals or total DA content” value is recorded as “absence of promoting regeneration”. Further, the “time of peak of mdivi-1 in striatal dialysate” value in data set [3] (after an i.p. injection) was determined as 3 h. Besides, in data set [3] (after i.p. injection, in vivo microdialysis, HPLC), the “mdivi-1 in the striatal dialysate (ability to cross the blood-brain barrier)” value is “detected”. In data set [4], the “transport activity of DAT” value was “did not affect”.

These data come from patent US20140155471A1, “TREATING NEUROLOGICAL DISEASE OR INJURY WITH A DYNAMIN-RELATED PROTEIN 1 (DRP1) ENCODING NUCLEIC ACID” (UNIVERSITY OF ROCHESTER, priority 2011, published 2014).
